Measured values from patent publication US8383641B2, “Aryloxyethylamine compounds suitable for treating disorders that respond to modulation of the dopamine D3 receptor” (Abbott GmbH & Co. KG, priority 2006, dated 2013).
Where a name gives a salt, the structure may show the parent alone.

How the values were obtained:
[1] = biological target: T1, human dopamine D3 receptors (Homo sapiens, UniProt P35462); assay: Dopamine D3 receptor binding, [125I]-iodosulpride displacement; conditions: membranes of HEK-293 cells expressing human D3 receptor; 0.1 nM [125I]-iodosulpride
T1 construct: expressed in transfected cells; host or cells: HEK-293
Procedure: (§1) The substance to be tested was either dissolved in methanol/Chremophor® (BASF-AG) or in dimethyl sulfoxide and then diluted with water to the desired concentration.
(§2) Each assay mixture was run in triplicate.
The incubation buffer contained 50 mM tris, 120 mM NaCl, 5 mM KCl, 2 mM CaCl2, 2 mM MgCl2 and 0.1% bovine serum albumin, 10 μM quinolone and 0.1% ascorbic acid (prepared fresh daily). The buffer was adjusted to pH 7.4 with HCl.
(§3) After having been incubated at 25° C. for 60 minutes, the assay mixtures were filtered through a Whatman GF/B glass fiber filter under vacuum using a cell collecting device. The filters were transferred to scintillation viols using a filter transfer system. After 4 ml of Ultima Gold® (Packard) have been added, the samples were shaken for one hour and the radioactivity was then counted in a Beta-Counter (Packard, Tricarb 2000 or 2200CA). The cpm values were converted into dpm using a standard quench series and the program belonging to the instrument.
(§4) The inhibition curves were analyzed by means of iterative nonlinear regression analysis using the Statistical Analysis System (SAS) which is similar to the “LIGAND” program described by Munson and Rodbard.

[2] = biological target: T2, human dopamine D2L receptors (long isoform) (Homo sapiens, UniProt P14416); assay: Dopamine D2L receptor binding, [125I] iodospiperone displacement; conditions: selectivity ratio of receptor binding constants, D2L versus D3
T2 construct: expressed in transfected cells; host or cells: HEK-293
Procedure: as §1, §2
The incubation buffer contained 50 mM tris, 120 mM NaCl, 5 mM KCl, 2 mM CaCl2, 2 mM MgCl2 and 0.1% bovine serum albumin. The buffer was adjusted to pH 7.4 with HCl.
as §3, §4

T1 sequence (P35462 whole entry): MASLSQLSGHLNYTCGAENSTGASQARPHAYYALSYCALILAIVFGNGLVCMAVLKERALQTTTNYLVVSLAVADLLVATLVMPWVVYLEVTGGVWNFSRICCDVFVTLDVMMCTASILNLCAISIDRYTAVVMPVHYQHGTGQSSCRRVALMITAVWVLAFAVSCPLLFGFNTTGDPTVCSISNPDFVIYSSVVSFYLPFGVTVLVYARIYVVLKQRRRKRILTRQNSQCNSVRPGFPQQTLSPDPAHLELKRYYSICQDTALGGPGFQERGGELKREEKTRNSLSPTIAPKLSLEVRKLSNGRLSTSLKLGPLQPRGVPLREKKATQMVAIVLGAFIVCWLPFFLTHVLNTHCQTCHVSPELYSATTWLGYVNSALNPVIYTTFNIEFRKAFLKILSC
T2 sequence (P14416 whole entry, canonical isoform): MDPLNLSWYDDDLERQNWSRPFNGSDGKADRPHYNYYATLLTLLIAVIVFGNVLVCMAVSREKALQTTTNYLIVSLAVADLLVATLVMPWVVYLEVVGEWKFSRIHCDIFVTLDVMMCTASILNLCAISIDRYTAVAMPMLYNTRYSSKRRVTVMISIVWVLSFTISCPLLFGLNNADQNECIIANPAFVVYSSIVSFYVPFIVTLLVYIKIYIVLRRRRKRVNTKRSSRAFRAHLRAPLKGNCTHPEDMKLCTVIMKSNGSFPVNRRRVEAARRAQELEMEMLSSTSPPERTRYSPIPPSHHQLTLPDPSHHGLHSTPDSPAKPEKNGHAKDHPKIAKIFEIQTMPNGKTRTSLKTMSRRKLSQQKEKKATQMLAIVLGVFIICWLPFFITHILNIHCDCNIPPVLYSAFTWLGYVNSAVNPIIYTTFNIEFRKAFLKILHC

## CCCNCCOc1ccc(NS(=O)(=O)c2ccc(-c3cnco3)cc2)c(OC)n1 [Example 7, N-[2-Methoxy-6-(2-propylamino-ethoxy)-pyridin-3-yl]-4-oxazol-5-yl-benzenesulfonamide×HCl]
[1]
  Ki: < 1 nM
[2]
  Ki(D2)*/Ki(D3)*: ++++ (>150)

## CCCNCCOc1ccc(NS(=O)(=O)c2ccc(C(C)C)cc2)c(OC)n1 [Example 4, 4-Isopropyl-N-[2-methoxy-6-(2-propylamino-ethoxy)-pyridin-3-yl]-benzenesulfonamide×HCl]
[1]
  Ki: < 1 nM
[2]
  Ki(D2)*/Ki(D3)*: ++ (between 50 and 100)

## CC(C)c1ccc(S(=O)(=O)Nc2ccc(OCCN(C)C)nc2)cc1 [Example 22, N-[6-(2-Dimethylamino-ethoxy)-pyridin-3-yl]-4-isopropyl-benzenesulfonamide×HCl]
[1]
  Ki: 50 to 150 nM

## Cc1nc(OC[C@@H]2CCCN2)ccc1NS(=O)(=O)c1ccc(C(C)C)cc1 [Example 43, 4-Isopropyl-N-[2-methyl-6-((S)-1-pyrrolidin-2-ylmethoxy)-pyridin-3-yl]-benzenesulfonamide×HCl]
[1]
  Ki: 1 to 10 nM
[2]
  Ki(D2)*/Ki(D3)*: +++ (between 100 and 150)

## CCCNCCOc1ccc(NS(=O)(=O)c2ccc(C(C)C(F)(F)F)cc2)c(OC)n1 (stereo not drawn) [Example 3, N-[2-Methoxy-6-(2-propylamino-ethoxy)-pyridin-3-yl]-4-(2,2,2-trifluoro-1-methylethyl)-benzenesulfonamide×HCl]
[1]
  Ki: 1 to 10 nM
[2]
  Ki(D2)*/Ki(D3)*: ++ (between 50 and 100)

## CCCN(CCC)CCOc1ccc(NS(=O)(=O)c2ccc(C(C)C)cc2)cn1 [Example 24, N-[6-(2-Dipropylamino-ethoxy)-pyridin-3-yl]-4-isopropyl-benzenesulfonamide×HCl]
[1]
  Ki: 10 to 50 nM
[2]
  Ki(D2)*/Ki(D3)*: ++ (between 50 and 100)

## CCCNCCOc1ccc(NS(=O)(=O)c2ccc(OC(F)F)cc2)c(OC)n1 [Example 5, 4-Difluoromethoxy-N-[2-methoxy-6-(2-propylamino-ethoxy)-pyridin-3-yl]-benzenesulfonamide×HCl]
[1]
  Ki: 1 to 10 nM
[2]
  Ki(D2)*/Ki(D3)*: ++ (between 50 and 100)

## CCCNCCOc1ccc(NS(=O)(=O)c2ccc(OCC(F)(F)F)cc2)c(OC)n1 [Example 10, N-[2-Methoxy-6-(2-propylamino-ethoxy)-pyridin-3-yl]-4-(2,2,2-trifluoro-ethoxy)-benzenesulfonamide×HCl]
[1]
  Ki: 1 to 10 nM
[2]
  Ki(D2)*/Ki(D3)*: ++++ (>150)

## CCCNCCOc1cc(C)c(NS(=O)(=O)c2ccc([C@@H](C)CF)cc2)cn1 [Example 57, 4-((R)-2-Fluoro-1-methyl-ethyl)-N-[4-methyl-6-(2-propylamino-ethoxy)-pyridin-3-yl]-benzenesulfonamide×HCl]
[1]
  Ki: 10 to 50 nM
[2]
  Ki(D2)*/Ki(D3)*: ++ (between 50 and 100)

## COc1nc(OCCN2CCCC2)ccc1NS(=O)(=O)c1ccc(C(C)C(F)(F)F)cc1 (stereo not drawn) [Example 18, N-[2-Methoxy-6-(2-pyrrolidin-1-yl-ethoxy)-pyridin-3-yl]-4-(2,2,2-trifluoro-1-methyl-ethyl)-benzenesulfonamide]
[1]
  Ki: 1 to 10 nM
[2]
  Ki(D2)*/Ki(D3)*: + (between 10 and 50)

## COc1nc(OC[C@H]2CCCN2)ccc1NS(=O)(=O)c1ccc(-c2cnco2)cc1 [Example 27, N-[2-Methoxy-6-((R)-1-pyrrolidin-2-ylmethoxy)-pyridin-3-yl]-4-oxazol-5-yl-benzenesulfonamide×HCl]
[1]
  Ki: 1 to 10 nM
[2]
  Ki(D2)*/Ki(D3)*: +++ (between 100 and 150)

## CCCNCCOc1ccc(NS(=O)(=O)c2ccc(OCC(F)F)cc2)c(OC)n1 [Example 9, 4-(2,2-Difluoro-ethoxy)-N-[2-methoxy-6-(2-propylamino-ethoxy)-pyridin-3-yl]-benzenesulfonamid×HCl]
[1]
  Ki: 1 to 10 nM
[2]
  Ki(D2)*/Ki(D3)*: ++++ (>150)

## CCCN1CCC(Oc2ccc(NS(=O)(=O)c3ccc(C(C)C)cc3)c(C)n2)C1.O=C(O)/C=C/C(=O)O (stereo not drawn) [Example 61, 4-Isopropyl-N-{2-methyl-6-[(1-propylpyrrolidin-3-yl)oxy]pyridin-3-yl}benzenesulfonamide (2E)-but-2-enedioate]
[1]
  Ki: 1 to 10 nM
[2]
  Ki(D2)*/Ki(D3)*: + (between 10 and 50)

## CCCNCCOc1ccc(NS(=O)(=O)c2ccc(C(C)C)cc2)c(C)n1 [Example 29, 4-Isopropyl-N-[2-methyl-6-(2-propylamino-ethoxy)-pyridin-3-yl]-benzenesulfonamide×HCl]
[1]
  Ki: < 1 nM
[2]
  Ki(D2)*/Ki(D3)*: ++++ (>150)

## CCCNCCOc1ccc(NS(=O)(=O)c2ccc(C(C)C)cc2)cn1 [Example 23, 4-Isopropyl-N-[6-(2-propylamino-ethoxy)-pyridin-3-yl]-benzenesulfonamide×HCl]
[1]
  Ki: 10 to 50 nM
[2]
  Ki(D2)*/Ki(D3)*: + (between 10 and 50)

## COc1nc(OCCN2CCCC2)ccc1NS(=O)(=O)c1ccc(-c2cnco2)cc1 [Example 19, N-[2-Methoxy-6-(2-pyrrolidin-1-yl-ethoxy)-pyridin-3-yl]-4-oxazol-5-yl-benzenesulfonamide]
[1]
  Ki: 10 to 50 nM
[2]
  Ki(D2)*/Ki(D3)*: + (between 10 and 50)

## CCCNCCOc1ccc(NS(=O)(=O)c2ccc(OC(F)(F)F)cc2)c(OC)n1.Cl [Example 2, N-[2-Methoxy-6-(2-propylamino-ethoxy)-pyridin-3-yl]-4-trifluoromethoxy-benzenesulfonamide×HCl]
[1]
  Ki: 1 to 10 nM
[2]
  Ki(D2)*/Ki(D3)*: + (between 10 and 50)

## CCCNCCOc1ccc(NS(=O)(=O)c2ccc([C@@H](C)CF)cc2)c(OC)n1 [Example 11, 4-((R)-2-Fluoro-1-methyl-ethyl)-N-[2-methoxy-6-(2-propylamino-ethoxy)-pyridin-3-yl]-benzenesulfonamide×HCl]
[1]
  Ki: < 1 nM
[2]
  Ki(D2)*/Ki(D3)*: ++++ (>150)

## CCCNCCOc1ncc(NS(=O)(=O)c2ccc(OC(F)(F)F)cc2)c(OC)n1 [Example 21, N-[4-Methoxy-2-(2-propylamino-ethoxy)-pyrimidin-5-yl]-4-trifluoromethoxy-benzenesulfonamide]
[1]
  Ki: 50 to 150 nM
[2]
  Ki(D2)*/Ki(D3)*: ++ (between 50 and 100)

## COc1nc(OCCN2CCCC2)ccc1NS(=O)(=O)c1ccc(C(C)C)cc1 [Example 16, 4-Isopropyl-N-[2-methoxy-6-(2-pyrrolidin-1-yl-ethoxy)-pyridin-3-yl]-benzenesulfonamide×HCl]
[1]
  Ki: 1 to 10 nM
[2]
  Ki(D2)*/Ki(D3)*: + (between 10 and 50)

## CCCNCCOc1ncc(NS(=O)(=O)c2ccc(C(C)C)cc2)c(OC)n1 [Example 20, 4-isopropyl-N-[4-methoxy-2-(2-propylamino-ethoxy)-pyrimidin-5-yl]-benzenesulfonamide]
[1]
  Ki: 1 to 10 nM
[2]
  Ki(D2)*/Ki(D3)*: + (between 10 and 50)

## CCCNCCOc1ccc(NS(=O)(=O)c2ccc(CCF)cc2)c(OC)n1 [Example 6, 4-(2-Fluoro-ethyl)-N-[2-methoxy-6-(2-propylamino-ethoxy)-pyridin-3-yl]-benzenesulfonamide×HCl]
[1]
  Ki: 1 to 10 nM
[2]
  Ki(D2)*/Ki(D3)*: ++ (between 50 and 100)

## CCCNCCOc1ccc(NS(=O)(=O)c2ccc(-c3cnco3)cc2)c(C)n1 [Example 36, N-[2-Methyl-6-(2-propylamino-ethoxy)-pyridin-3-yl]-4-oxazol-5-yl-benzenesulfonamide×HCl]
[1]
  Ki: 10 to 50 nM
[2]
  Ki(D2)*/Ki(D3)*: ++++ (>150)

## COc1nc(OC2CCNC2)ccc1NS(=O)(=O)c1ccc(C(C)C)cc1 (stereo not drawn) [Example 13, 4-Isopropyl-N-[2-methoxy-6-(pyrrolidin-3-yloxy)-pyridin-3-yl]-benzenesulfonamide×HCl]
[1]
  Ki: 50 to 150 nM
[2]
  Ki(D2)*/Ki(D3)*: + (between 10 and 50)

## COc1nc(OCCN2CCCC2)ccc1NS(=O)(=O)c1ccc([C@@H](C)CF)cc1 [Example 17, 4-((R)-2-Fluoro-1-methyl-ethyl)-N-[2-methoxy-6-(2-pyrrolidin-1-yl-ethoxy)-pyridin-3-yl]-benzenesulfonamide]
[1]
  Ki: 1 to 10 nM
[2]
  Ki(D2)*/Ki(D3)*: ++ (between 50 and 100)

## COc1nc(OCCN2CCCC2)ccc1NS(=O)(=O)c1ccc(CCCF)cc1 [Example 15, 4-(3-Fluoro-propyl)-N-[2-methoxy-6-(2-pyrrolidin-1-yl-ethoxy)-pyridin-3-yl]-benzenesulfonamide]
[1]
  Ki: 10 to 50 nM
[2]
  Ki(D2)*/Ki(D3)*: + (between 10 and 50)

## CCCNCCOc1ccc(NS(=O)(=O)c2ccc(OCCF)cc2)c(OC)n1 [Example 8, 4-(2-Fluoro-ethoxy)-N-[2-methoxy-6-(2-propylamino-ethoxy)-pyridin-3-yl]-benzenesulfonamide×HCl]
[1]
  Ki: 1 to 10 nM
[2]
  Ki(D2)*/Ki(D3)*: ++++ (>150)

## CCCNCCOc1ccc(NS(=O)(=O)c2ccc(CCCF)cc2)c(OC)n1 [Example 1, 4-(3-Fluoro-propyl)-N-[2-methoxy-6-(2-propylamino-ethoxy)-pyridin-3-yl]-benzenesulfonamide×HCl]
[1]
  Ki: < 1 nM
[2]
  Ki(D2)*/Ki(D3)*: ++ (between 50 and 100)

## CCCNCCOc1ccc(NS(=O)(=O)c2ccc([C@@H](C)CF)cc2)c(C)n1 [Example 34, 4-((R)-2-Fluoro-1-methyl-ethyl)-N-[2-methyl-6-(2-propylamino-ethoxy)-pyridin-3-yl]-benzenesulfonamide×HCl]
[1]
  Ki: 1 to 10 nM
[2]
  Ki(D2)*/Ki(D3)*: ++++ (>150)
